According to ChEMBL document CHEMBL1201862, “PubChem BioAssay data set” (2004):
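Five concentrations, 48 hours, 96-well plates. Here, GI50 denotes the concentration required for 50% inhibition of growth.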 Active and inactive are the calls of the source. Rule as the data show it: active = GI50 up to about 1.1 µM and inactive = higher.

Key:
Assay in all cases: NCI-60 cell line screen, 48 h
[1] = tested on: RPMI-8226
[2] = tested on: OVCAR-4
[3] = tested on: KM-20L2
[4] = tested on: OVCAR-3
[5] = tested on: OVCAR-8
[6] = tested on: HOP-62
[7] = tested on: DMS-114
[8] = tested on: SNB-19
[9] = tested on: A549
[10] = tested on: OVCAR-5
[11] = tested on: SF-295
[12] = tested on: BT-549
[13] = tested on: MOLT-4
[14] = tested on: LOX IMVI
[15] = tested on: U-251
[16] = tested on: SW-620
[17] = tested on: SK-MEL-5
[18] = tested on: UO-31
[19] = tested on: MCF7
[20] = tested on: UACC-62
[21] = tested on: IGROV-1
[22] = tested on: Hs-578T
[23] = tested on: NCI-H460
[24] = tested on: CAKI-1
[25] = tested on: COLO 205
[26] = tested on: HL-60
[27] = tested on: HCT-116
[28] = tested on: M14
[29] = tested on: HT-29
[30] = tested on: 786-0
[31] = tested on: MDA-MB-435
[32] = tested on: CCRF-CEM
[33] = tested on: HCT-15
[34] = tested on: SF-268
[35] = tested on: SK-MEL-2
[36] = tested on: SK-MEL-28
[37] = tested on: NCI/ADR-RES
[38] = tested on: T47D
[39] = tested on: UACC-257
[40] = tested on: SF-539
[41] = tested on: RXF 393
[42] = tested on: SNB-75
[43] = tested on: SR
[44] = tested on: TK-10
[45] = tested on: K562
[46] = tested on: NCI-H23
[47] = tested on: SN12C
[48] = tested on: NCI-H522
[49] = tested on: KM12
[50] = tested on: A498
[51] = tested on: SK-OV-3
[52] = tested on: MDA-MB-231
[53] = tested on: ACHN
[54] = tested on: PC-3
[55] = tested on: HCC 2998
[56] = tested on: MDA-N
[57] = tested on: Malme-3M
[58] = tested on: NCI-H226
[59] = tested on: DU-145
[60] = tested on: EKVX
[61] = tested on: HOP-92

Compound: CC1=CC(=O)c2[nH]c3ccccc3c2C1=O [MURRAYAQUINONE A]
- GI50 [1]: 5.96 µM (inactive)
- GI50 [2]: 4.16 µM (inactive)
- GI50 [3]: > 25 µM (inactive)
- GI50 [4]: 4.53 µM (inactive)
- GI50 [5]: 4.02 µM (inactive)
- GI50 [6]: > 25 µM (inactive)
- GI50 [7]: 4.26 µM (inactive)
- GI50 [8]: > 25 µM (inactive)
- GI50 [9]: > 25 µM (inactive)
- GI50 [10]: 5.4 µM (inactive)

Compound: OCCNC1c2cc(Cl)ccc2-c2c(Cl)cc(Cl)cc21 (stereo not drawn)
- GI50 [11]: 35.6 µM (inactive)
- GI50 [12]: > 100 µM (inactive)
- GI50 [13]: 22.1 µM (inactive)
- GI50 [1]: 33.1 µM (inactive)
- GI50 [14]: 34.5 µM (inactive)
- GI50 [15]: 26.3 µM (inactive)
- GI50 [16]: 30.3 µM (inactive)
- GI50 [2]: 32.1 µM (inactive)
- GI50 [17]: > 100 µM (inactive)
- GI50 [18]: 3.37 µM (inactive)
- GI50 [19]: 17.2 µM (inactive)
- GI50 [20]: 34 µM (inactive)
- GI50 [21]: 13.2 µM (inactive)
- GI50 [22]: 33.1 µM (inactive)
- GI50 [23]: 21.7 µM (inactive)
- GI50 [24]: 30.3 µM (inactive)
- GI50 [25]: 54.8 µM (inactive)
- GI50 [26]: 25.6 µM (inactive)
- GI50 [27]: 26.5 µM (inactive)
- GI50 [28]: 38.1 µM (inactive)
- GI50 [29]: 31.5 µM (inactive)
- GI50 [4]: 29.8 µM (inactive)
- GI50 [30]: 27.3 µM (inactive)
- GI50 [31]: 35.6 µM (inactive)
- GI50 [32]: 23.2 µM (inactive)
- GI50 [33]: 33.7 µM
- GI50 [34]: 38.5 µM (inactive)
- GI50 [35]: 15.2 µM (inactive)
- GI50 [36]: 92.3 µM (inactive)
- GI50 [37]: 45.9 µM (inactive)
- GI50 [38]: 36.1 µM (inactive)
- GI50 [39]: 31.3 µM (inactive)
- GI50 [40]: 47.9 µM (inactive)
- GI50 [41]: 40.2 µM (inactive)
- GI50 [42]: 37.9 µM (inactive)
- GI50 [43]: 20.5 µM (inactive)
- GI50 [44]: 39.7 µM (inactive)
- GI50 [5]: 28.6 µM (inactive)
- GI50 [6]: 41.2 µM (inactive)
- GI50 [45]: 33 µM (inactive)
- GI50 [46]: 39.2 µM (inactive)
- GI50 [47]: 25.5 µM (inactive)
- GI50 [48]: 27.8 µM (inactive)
- GI50 [49]: 32.7 µM (inactive)
- GI50 [50]: 48 µM (inactive)
- GI50 [51]: 42 µM (inactive)
- GI50 [52]: 22 µM (inactive)
- GI50 [53]: 25.9 µM (inactive)
- GI50 [54]: 23.3 µM (inactive)
- GI50 [8]: 39.4 µM (inactive)
- GI50 [55]: 35.1 µM (inactive)
- GI50 [56]: 26.9 µM (inactive)
- GI50 [57]: > 100 µM (inactive)
- GI50 [58]: > 100 µM (inactive)
- GI50 [59]: > 100 µM (inactive)
- GI50 [60]: 11.6 µM (inactive)
- GI50 [61]: 20.3 µM (inactive)
- GI50 [9]: 30 µM (inactive)
- GI50 [10]: 42.2 µM (inactive)

Compound: CCOC(=O)C(NC(=O)c1cccc(Cl)c1)(N1CCN(c2cc3c(cc2F)c(=O)c(C(=O)O)cn3CC)CC1)C(F)(F)F (stereo not drawn)
- GI50 [11]: 18.7 µM (inactive)
- GI50 [12]: 19.4 µM (inactive)
- GI50 [13]: 3.85 µM (inactive)
- GI50 [1]: 10.9 µM (inactive)
- GI50 [14]: 17.7 µM (inactive)
- GI50 [15]: 6.7 µM (inactive)
- GI50 [16]: 12.9 µM (inactive)
- GI50 [2]: 18.6 µM (inactive)
- GI50 [17]: 14.2 µM (inactive)
- GI50 [18]: 19.2 µM (inactive)
- GI50 [19]: 13.8 µM (inactive)
- GI50 [20]: 16.4 µM (inactive)
- GI50 [21]: 18.3 µM (inactive)
- GI50 [22]: 15.6 µM (inactive)
- GI50 [23]: 22.3 µM (inactive)
- GI50 [24]: 23.7 µM (inactive)
- GI50 [25]: 18.1 µM (inactive)
- GI50 [26]: 4.47 µM (inactive)
- GI50 [27]: 14 µM (inactive)
- GI50 [28]: 16.8 µM (inactive)
- GI50 [29]: 17.6 µM (inactive)
- GI50 [4]: 14.8 µM (inactive)
- GI50 [30]: 14.7 µM (inactive)
- GI50 [31]: 14.5 µM (inactive)
- GI50 [32]: 2.61 µM (inactive)
- GI50 [33]: 17.6 µM
- GI50 [34]: 14.1 µM (inactive)
- GI50 [35]: 13.5 µM (inactive)
- GI50 [36]: 17 µM (inactive)
- GI50 [37]: 39.8 µM (inactive)
- GI50 [38]: 19.4 µM (inactive)
- GI50 [39]: 27.4 µM (inactive)
- GI50 [40]: 15.2 µM (inactive)
- GI50 [41]: 18.2 µM (inactive)
- GI50 [42]: 21.4 µM (inactive)
- GI50 [43]: 17.1 µM (inactive)
- GI50 [44]: 21.3 µM (inactive)
- GI50 [5]: 16.6 µM (inactive)
- GI50 [6]: 20.5 µM (inactive)
- GI50 [45]: 5.73 µM (inactive)
- GI50 [46]: 18 µM (inactive)
- GI50 [47]: 24.4 µM (inactive)
- GI50 [48]: 4.17 µM (inactive)
- GI50 [49]: 11.7 µM (inactive)
- GI50 [50]: 20.7 µM (inactive)
- GI50 [51]: 23.9 µM (inactive)
- GI50 [52]: 15.8 µM (inactive)
- GI50 [53]: 15.7 µM (inactive)
- GI50 [54]: 13.4 µM (inactive)
- GI50 [8]: 29.4 µM (inactive)
- GI50 [55]: 12.6 µM (inactive)
- GI50 [56]: 14.9 µM (inactive)
- GI50 [57]: 18.2 µM (inactive)
- GI50 [58]: 18.2 µM (inactive)
- GI50 [59]: 25.4 µM (inactive)
- GI50 [60]: 17.1 µM (inactive)
- GI50 [61]: 13.8 µM (inactive)
- GI50 [9]: 18.7 µM (inactive)
- GI50 [10]: 17.4 µM (inactive)
